Laboratory results taken from US20090232838A1, “Ligands of melanocortin receptors” (priority 2005, published 2009).
Where two headings read alike, the source gives them in different places. Where a SMILES comes first, the peptide text is derived from it. Bridges are numbered along the chain shown (N, C = ends). [ ]: non-standard residue; d: D form. d2Nal = N[C@H](Cc1ccc2ccccc2c1)C(=O)O; Bta = N[C@@H](Cc1csc2ccccc12)C(=O)O

What was measured:
Assay type in all cases: cell-based
hMC1-R = target: T1, hMC1-R (Homo sapiens, UniProt Q01726); assay: cyclic AMP bioassay, hMC1-R
T1 construct: expressed in transfected cells; host or cells: CHO-K1

hMC3-R = target: T2, hMC3-R (Homo sapiens, UniProt P41968); assay: cyclic AMP bioassay, hMC3-R
T2 construct: expressed in transfected cells; host or cells: CHO-K1

hMC4-R = target: T3, hMC4-R (Homo sapiens, UniProt P32245); assay: cyclic AMP bioassay, hMC4-R
T3 construct: expressed in transfected cells; host or cells: CHO-K1

hMC5-R = target: T4, hMC5-R (Homo sapiens, UniProt P33032); assay: cyclic AMP bioassay, hMC5-R
T4 construct: expressed in transfected cells; host or cells: CHO-K1

[1] = Table 3A, cAMP in CHO-K1 cells, agonist, read-out: EC50 hMC1-R
[2] = Table 3A, cAMP in CHO-K1 cells, antagonist potency by Schild analysis, read-out: Kb hMC3-R
[3] = Table 3A, cAMP in CHO-K1 cells, antagonist potency by Schild analysis, read-out: Kb hMC4-R
[4] = Table 3A, cAMP in CHO-K1 cells, agonist, read-out: EC50 hMC5-R

T4 sequence (P33032 whole entry): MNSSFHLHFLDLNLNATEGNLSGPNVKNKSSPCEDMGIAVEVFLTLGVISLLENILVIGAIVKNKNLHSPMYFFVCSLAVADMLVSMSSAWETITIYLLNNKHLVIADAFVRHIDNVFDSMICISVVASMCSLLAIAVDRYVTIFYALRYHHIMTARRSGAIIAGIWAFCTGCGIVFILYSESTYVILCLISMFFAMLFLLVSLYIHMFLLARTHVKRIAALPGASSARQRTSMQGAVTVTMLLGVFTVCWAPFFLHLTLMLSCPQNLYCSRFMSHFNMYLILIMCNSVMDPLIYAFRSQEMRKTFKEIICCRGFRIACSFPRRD
T1 sequence (Q01726 whole entry): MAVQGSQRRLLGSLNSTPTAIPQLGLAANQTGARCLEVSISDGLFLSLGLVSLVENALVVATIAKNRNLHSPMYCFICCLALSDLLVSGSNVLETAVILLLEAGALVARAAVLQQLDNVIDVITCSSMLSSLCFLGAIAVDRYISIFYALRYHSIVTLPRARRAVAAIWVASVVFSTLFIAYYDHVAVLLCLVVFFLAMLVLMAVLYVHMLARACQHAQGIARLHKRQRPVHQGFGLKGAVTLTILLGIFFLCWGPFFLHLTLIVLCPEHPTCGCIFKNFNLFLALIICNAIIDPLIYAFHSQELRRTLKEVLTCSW
T2 sequence (P41968 whole entry): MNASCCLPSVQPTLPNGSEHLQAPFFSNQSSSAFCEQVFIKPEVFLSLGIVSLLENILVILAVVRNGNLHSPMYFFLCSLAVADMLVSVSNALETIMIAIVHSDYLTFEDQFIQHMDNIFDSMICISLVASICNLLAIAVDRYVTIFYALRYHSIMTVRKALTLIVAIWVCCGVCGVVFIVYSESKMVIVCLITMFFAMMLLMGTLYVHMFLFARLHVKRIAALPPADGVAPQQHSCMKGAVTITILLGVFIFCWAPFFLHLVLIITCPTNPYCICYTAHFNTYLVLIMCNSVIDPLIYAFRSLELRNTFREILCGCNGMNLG
T3 sequence (P32245 whole entry): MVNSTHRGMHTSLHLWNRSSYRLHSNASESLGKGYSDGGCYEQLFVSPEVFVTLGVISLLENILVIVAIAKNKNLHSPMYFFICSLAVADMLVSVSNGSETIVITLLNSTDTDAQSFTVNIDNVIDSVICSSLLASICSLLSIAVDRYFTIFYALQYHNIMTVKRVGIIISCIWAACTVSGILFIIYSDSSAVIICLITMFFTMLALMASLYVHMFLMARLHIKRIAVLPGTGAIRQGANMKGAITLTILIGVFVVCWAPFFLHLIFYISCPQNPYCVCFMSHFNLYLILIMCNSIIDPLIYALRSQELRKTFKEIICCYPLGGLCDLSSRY

SMILES	EC50 (hMC1-R)	Kb (hMC3-R)	Kb (hMC4-R)	EC50 (hMC5-R)	EC50 (hMC1-R; [1])	Kb (hMC3-R; [2])	Kb (hMC4-R; [3])	EC50 (hMC5-R; [4])	EC50 (hMC3-R)	EC50 (hMC4-R)
CC(=O)N[C@H]1CSSC[C@@H](C(=O)N2CCC[C@H]2C(=O)N2CCC[C@H]2C(=O)N[C@@H](CCCCN)C(=O)N[C@@H](CC(=O)O)C(=O)NCCC(=O)N[C@@H](CCCNC(=N)N)C(=O)N[C@@H](CCCCN)C(=O)N[C@@H](CCCNC(=N)N)C(=O)N[C@@H](CCCNC(=N)N)C(=O)N[C@@H](CCCNC(=N)N)C(=O)N[C@@H](CCC(N)=O)C(=O)N[C@@H](CCCNC(=N)N)C(=O)N[C@@H](CCCNC(=N)N)C(=O)N[C@@H](CCCNC(=N)N)C(N)=O)NC(=O)[C@H](C)NC(=O)[C@H](Cc2cccc3ccccc23)NC(=O)[C@H](CCCNC(=N)N)NC(=O)[C@@H](Cc2ccc3ccccc3c2)NC(=O)[C@H](Cc2c[nH]cn2)NC(=O)[C@H](CCC(=O)O)NC1=O	33.1 nM	65.1 nM	15.3 nM	1720 nM						
CCCC[C@H](NC(C)=O)C(=O)N[C@H]1CC(=O)NCCCC[C@@H](C(=O)N2CCC[C@H]2C(=O)N2CCC[C@H]2C(=O)N[C@@H](CCCCN)C(=O)N[C@@H](CC(=O)O)C(=O)NCCOCCOCC(=O)N[C@@H](Cc2ccc(O)cc2)C(=O)NCC(=O)N[C@@H](CCCNC(=N)N)C(=O)N[C@@H](CCCCN)C(=O)N[C@@H](CCCCN)C(=O)N[C@@H](CCCNC(=N)N)C(=O)N[C@@H](CCCNC(=N)N)C(=O)N[C@@H](CCC(N)=O)C(=O)N[C@@H](CCCNC(=N)N)C(=O)N[C@@H](CCCNC(=N)N)C(=O)N[C@@H](CCCNC(=N)N)C(N)=O)NC(=O)[C@H](Cc2c[nH]c3ccccc23)NC(=O)[C@H](CCCNC(=N)N)NC(=O)[C@@H](Cc2ccc3ccccc3c2)NC(=O)[C@H](Cc2c[nH]cn2)NC1=O					3.65 nM	19.4 nM	3.73 nM	1.61 nM		
CCCC[C@H](NC(C)=O)C(=O)N[C@H]1CSSC[C@@H](C(=O)NCCC(=O)NCC(=O)N[C@@H](CCCNC(=N)N)C(=O)N[C@@H](CCCNC(=N)N)C(=O)N[C@@H](CCCCN)C(=O)N[C@@H](CCCNC(=N)N)C(=O)N[C@@H](CCCNC(=N)N)C(=O)N[C@@H](CCC(N)=O)C(=O)N[C@@H](CCCNC(=N)N)C(=O)N[C@@H](CCCNC(=N)N)C(=O)N[C@@H](CCCNC(=N)N)C(N)=O)NC(=O)[C@H](Cc2c[nH]c3ccccc23)NC(=O)[C@H](CCCNC(=N)N)NC(=O)[C@@H](Cc2ccccc2)NC(=O)[C@H](Cc2c[nH]cn2)NC(=O)[C@@H](C)NC1=O	2.36 nM			500 nM					2.74 nM	0.26 nM
CC(=O)N[C@H]1CSSC[C@@H](C(=O)N2CCC[C@H]2C(=O)N2CCC[C@H]2C(=O)N[C@@H](CCCCN)C(=O)N[C@@H](CC(=O)O)C(N)=O)NC(=O)[C@H](C)NC(=O)[C@H](Cc2csc3ccccc23)NC(=O)[C@H](CCCNC(=N)N)NC(=O)[C@@H](Cc2ccc3ccccc3c2)NC(=O)[C@H](Cc2c[nH]cn2)NC(=O)[C@H](CCC(=O)O)NC1=O [Ac-c(Cys-Glu-His-D-2-Nal-Arg-Bal-Ala-Cys)-Pro-Pro-Lys-Asp-NH2] (Ac-CEH[d2Nal]R[Bta]ACPPKD-NH2; disulfide 1-8)	690 nM	70.7 nM	4.56 nM	177 nM						
CC(=O)N[C@H]1CSSC[C@@H](C(=O)N2CCC[C@H]2C(=O)N2CCC[C@H]2C(=O)N[C@@H](CCCCN)C(=O)N[C@@H](CC(=O)O)C(=O)NCCC(=O)N[C@@H](Cc2ccc(O)cc2)C(=O)NCC(=O)N[C@@H](CCCNC(=N)N)C(=O)N[C@@H](CCCCN)C(=O)N[C@@H](CCCCN)C(=O)N[C@@H](CCC(N)=O)C(=O)N[C@@H](CCCNC(=N)N)C(=O)N[C@@H](CCCNC(=N)N)C(=O)N[C@@H](CCCNC(=N)N)C(=O)N[C@@H](CCCNC(=N)N)C(=O)N[C@@H](CCCNC(=N)N)C(N)=O)NC(=O)[C@H](C)NC(=O)[C@H](Cc2c[nH]c3ccccc23)NC(=O)[C@H](CCCNC(=N)N)NC(=O)[C@@H](Cc2ccc3ccccc3c2)NC(=O)[C@H](Cc2c[nH]cn2)NC(=O)[C@H](CCC(=O)O)NC1=O					6.7 nM	9.38 nM	11.7 nM	46.2 nM		
CC(=O)N[C@H]1CSSC[C@@H](C(=O)N2CCC[C@H]2C(=O)N2CCC[C@H]2C(=O)N[C@@H](CCCCN)C(=O)N[C@@H](CC(=O)O)C(=O)NCCC(=O)N[C@@H](CCCNC(=N)N)C(=O)N[C@@H](CCCNC(=N)N)C(=O)N[C@@H](CCCNC(=N)N)C(=O)N[C@@H](CCCNC(=N)N)C(=O)N[C@@H](CCCNC(=N)N)C(=O)N[C@@H](CCC(N)=O)C(=O)N[C@@H](CCCNC(=N)N)C(=O)N[C@@H](CCCNC(=N)N)C(=O)N[C@@H](CCCNC(=N)N)C(N)=O)NC(=O)[C@H](C)NC(=O)[C@H](Cc2cccc3ccccc23)NC(=O)[C@H](CCCNC(=N)N)NC(=O)[C@@H](Cc2ccc3ccccc3c2)NC(=O)[C@H](Cc2c[nH]cn2)NC(=O)[C@H](CCC(=O)O)NC1=O	36 nM	46.5 nM	11.4 nM	56.1 nM						
CC(=O)N[C@H]1CSSC[C@@H](C(=O)N2CCC[C@H]2C(=O)N2CCC[C@H]2C(=O)N[C@@H](CCCCN)C(=O)N[C@@H](CC(=O)O)C(=O)NCCC(=O)NCC(=O)N[C@@H](CCCNC(=N)N)C(=O)N[C@@H](CCCCN)C(=O)N[C@@H](CCCNC(=N)N)C(=O)N[C@@H](CCCNC(=N)N)C(=O)N[C@@H](CCCNC(=N)N)C(=O)N[C@@H](CCC(N)=O)C(=O)N[C@@H](CCCNC(=N)N)C(=O)N[C@@H](CCCNC(=N)N)C(=O)N[C@@H](CCCNC(=N)N)C(N)=O)NC(=O)[C@H](C)NC(=O)[C@H](Cc2cccc3ccccc23)NC(=O)[C@H](CCCNC(=N)N)NC(=O)[C@@H](Cc2ccc3ccccc3c2)NC(=O)[C@H](Cc2c[nH]cn2)NC(=O)[C@H](CCC(=O)O)NC1=O	45.5 nM	181 nM	6.35 nM	149 nM						
CCCC[C@H](NC(C)=O)C(=O)N[C@H]1CSSC[C@@H](C(=O)NCCC(=O)N[C@@H](Cc2ccc(O)cc2)C(=O)NCC(=O)N[C@@H](CCCNC(=N)N)C(=O)N[C@@H](CCCCN)C(=O)N[C@@H](CCCNC(=N)N)C(=O)N[C@@H](CCCNC(=N)N)C(=O)N[C@@H](CCCNC(=N)N)C(=O)N[C@@H](CCC(N)=O)C(=O)N[C@@H](CCCNC(=N)N)C(=O)N[C@@H](CCCNC(=N)N)C(=O)N[C@@H](CCCNC(=N)N)C(N)=O)NC(=O)[C@H](Cc2c[nH]c3ccccc23)NC(=O)[C@H](CCCNC(=N)N)NC(=O)[C@@H](Cc2ccccc2)NC(=O)[C@H](Cc2c[nH]cn2)NC(=O)[C@@H](C)NC1=O	7.57 nM			1790 nM					4.18 nM	0.6 nM
CC(=O)N[C@H]1CSSC[C@@H](C(=O)N2CCC[C@H]2C(=O)N2CCC[C@H]2C(=O)N[C@@H](CCCCN)C(=O)N[C@@H](CC(=O)O)C(=O)NCCC(=O)N[C@@H](Cc2ccc(O)cc2)C(=O)NCC(=O)N[C@@H](CCCNC(=N)N)C(=O)N[C@@H](CCCCN)C(=O)N[C@@H](CCC(N)=O)C(=O)N[C@@H](CCCCN)C(=O)N[C@@H](CCCNC(=N)N)C(=O)N[C@@H](CCCNC(=N)N)C(=O)N[C@@H](CCCNC(=N)N)C(=O)N[C@@H](CCCNC(=N)N)C(=O)N[C@@H](CCCNC(=N)N)C(N)=O)NC(=O)[C@H](C)NC(=O)[C@H](Cc2c[nH]c3ccccc23)NC(=O)[C@H](CCCNC(=N)N)NC(=O)[C@@H](Cc2ccc3ccccc3c2)NC(=O)[C@H](Cc2c[nH]cn2)NC(=O)[C@H](CCC(=O)O)NC1=O					7.9 nM	41.7 nM	10.9 nM	62.4 nM		
CC(=O)N[C@H]1CSSC[C@@H](C(=O)N2CCC[C@H]2C(=O)N2CCC[C@H]2C(=O)N[C@@H](CCCCN)C(=O)N[C@@H](CC(=O)O)C(=O)NCCC(=O)N[C@@H](Cc2ccc(O)cc2)C(=O)NCC(=O)N[C@@H](CCCNC(=N)N)C(=O)N[C@@H](CCCCN)C(=O)N[C@@H](CCCCN)C(=O)N[C@@H](CCCNC(=N)N)C(=O)N[C@@H](CCCNC(=N)N)C(=O)N[C@@H](CCCNC(=N)N)C(=O)N[C@@H](CCCNC(=N)N)C(=O)N[C@@H](CCCNC(=N)N)C(=O)N[C@@H](CCC(N)=O)C(N)=O)NC(=O)[C@H](C)NC(=O)[C@H](Cc2c[nH]c3ccccc23)NC(=O)[C@H](CCCNC(=N)N)NC(=O)[C@@H](Cc2ccc3ccccc3c2)NC(=O)[C@H](Cc2c[nH]cn2)NC(=O)[C@H](CCC(=O)O)NC1=O	7.5 nM	12.2 nM	7.61 nM	51.7 nM						
CC(=O)N[C@H]1CSSC[C@@H](C(=O)N2CCC[C@H]2C(=O)N2CCC[C@H]2C(=O)N[C@@H](CCCCN)C(=O)N[C@@H](CC(=O)O)C(=O)NCCC(=O)N[C@@H](Cc2ccc(O)cc2)C(=O)NCC(=O)N[C@@H](CCCNC(=N)N)C(=O)N[C@@H](CCCCN)C(=O)N[C@@H](CCCCN)C(=O)N[C@@H](CCCNC(=N)N)C(=O)N[C@@H](CCC(N)=O)C(=O)N[C@@H](CCCNC(=N)N)C(=O)N[C@@H](CCCNC(=N)N)C(=O)N[C@@H](CCCNC(=N)N)C(=O)N[C@@H](CCCNC(=N)N)C(N)=O)NC(=O)[C@H](C)NC(=O)[C@H](Cc2c[nH]c3ccccc23)NC(=O)[C@H](CCCNC(=N)N)NC(=O)[C@@H](Cc2ccc3ccccc3c2)NC(=O)[C@H](Cc2c[nH]cn2)NC(=O)[C@H](CCC(=O)O)NC1=O	15.2 nM	14.6 nM	4.52 nM	36.8 nM						
CCCC[C@H](NC(C)=O)C(=O)N[C@H]1CSSC[C@@H](C(=O)NCCC(=O)N[C@@H](Cc2ccc(O)cc2)C(=O)NCC(=O)N[C@@H](CCCNC(=N)N)C(=O)N[C@@H](CCCCN)C(=O)N[C@@H](CCCCN)C(=O)N[C@@H](CCCNC(=N)N)C(=O)N[C@@H](CCC(N)=O)C(=O)N[C@@H](CCCNC(=N)N)C(=O)N[C@@H](CCCNC(=N)N)C(=O)N[C@@H](CCCNC(=N)N)C(=O)N[C@@H](CCCNC(=N)N)C(N)=O)NC(=O)[C@H](Cc2c[nH]c3ccccc23)NC(=O)[C@H](CCCNC(=N)N)NC(=O)[C@@H](Cc2ccccc2)NC(=O)[C@H](Cc2c[nH]cn2)NC(=O)[C@@H](C)NC1=O	5.9 nM			2890 nM					7.73 nM	1.02 nM
